In article PMC10094297, “The Attenuation of Insulin/IGF-1 Signaling Pathway Plays a Crucial Role in the Myo-Inositol-Alleviated Aging in Caenorhabditis elegans” (International Journal of Molecular Sciences, 2023):

Experiments:
PI3K p110β = molecular target: T1, PI3K p110β (Homo sapiens, UniProt P42338); assay: PI3 Kinase Activity/Inhibitor Assay Kit (Millipore […]-493), competitive biotinylated-PIP3/GRP1 ELISA, PIP2 substrate; type: biochemical
T1 construct: gene PIK3CB

PI3K p110α = molecular target: T2, PI3K p110α (Homo sapiens, UniProt P42336); assay: as above; type: biochemical
T2 construct: gene PIK3CA
T2 sequence (P42336 whole entry): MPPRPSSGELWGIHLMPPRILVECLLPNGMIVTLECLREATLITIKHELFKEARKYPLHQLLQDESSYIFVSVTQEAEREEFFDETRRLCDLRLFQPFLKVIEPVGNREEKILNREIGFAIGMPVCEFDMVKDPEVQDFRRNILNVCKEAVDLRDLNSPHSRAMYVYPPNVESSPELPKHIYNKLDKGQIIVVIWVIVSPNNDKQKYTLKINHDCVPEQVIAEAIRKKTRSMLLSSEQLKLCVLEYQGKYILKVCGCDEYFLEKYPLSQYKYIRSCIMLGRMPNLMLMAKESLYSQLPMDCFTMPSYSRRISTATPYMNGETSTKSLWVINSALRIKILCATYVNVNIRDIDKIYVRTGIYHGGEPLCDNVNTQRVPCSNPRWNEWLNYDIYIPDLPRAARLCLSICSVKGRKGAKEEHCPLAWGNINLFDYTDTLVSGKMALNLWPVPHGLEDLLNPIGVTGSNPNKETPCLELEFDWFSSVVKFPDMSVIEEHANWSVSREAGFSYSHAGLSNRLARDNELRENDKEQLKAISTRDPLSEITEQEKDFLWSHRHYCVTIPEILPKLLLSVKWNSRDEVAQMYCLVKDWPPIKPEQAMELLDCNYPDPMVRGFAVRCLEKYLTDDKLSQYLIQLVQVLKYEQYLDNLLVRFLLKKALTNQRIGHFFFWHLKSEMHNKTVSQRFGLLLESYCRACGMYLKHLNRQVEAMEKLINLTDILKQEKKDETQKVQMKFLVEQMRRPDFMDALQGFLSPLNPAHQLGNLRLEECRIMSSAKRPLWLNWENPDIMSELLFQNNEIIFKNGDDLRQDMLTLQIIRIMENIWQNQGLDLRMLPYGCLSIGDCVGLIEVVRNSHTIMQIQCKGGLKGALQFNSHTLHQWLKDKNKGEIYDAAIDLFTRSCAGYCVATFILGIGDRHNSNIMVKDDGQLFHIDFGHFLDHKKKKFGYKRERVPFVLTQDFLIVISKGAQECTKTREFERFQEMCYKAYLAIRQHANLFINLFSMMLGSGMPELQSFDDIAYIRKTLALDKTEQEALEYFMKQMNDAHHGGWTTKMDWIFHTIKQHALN

T1 sequence (P42338 whole entry): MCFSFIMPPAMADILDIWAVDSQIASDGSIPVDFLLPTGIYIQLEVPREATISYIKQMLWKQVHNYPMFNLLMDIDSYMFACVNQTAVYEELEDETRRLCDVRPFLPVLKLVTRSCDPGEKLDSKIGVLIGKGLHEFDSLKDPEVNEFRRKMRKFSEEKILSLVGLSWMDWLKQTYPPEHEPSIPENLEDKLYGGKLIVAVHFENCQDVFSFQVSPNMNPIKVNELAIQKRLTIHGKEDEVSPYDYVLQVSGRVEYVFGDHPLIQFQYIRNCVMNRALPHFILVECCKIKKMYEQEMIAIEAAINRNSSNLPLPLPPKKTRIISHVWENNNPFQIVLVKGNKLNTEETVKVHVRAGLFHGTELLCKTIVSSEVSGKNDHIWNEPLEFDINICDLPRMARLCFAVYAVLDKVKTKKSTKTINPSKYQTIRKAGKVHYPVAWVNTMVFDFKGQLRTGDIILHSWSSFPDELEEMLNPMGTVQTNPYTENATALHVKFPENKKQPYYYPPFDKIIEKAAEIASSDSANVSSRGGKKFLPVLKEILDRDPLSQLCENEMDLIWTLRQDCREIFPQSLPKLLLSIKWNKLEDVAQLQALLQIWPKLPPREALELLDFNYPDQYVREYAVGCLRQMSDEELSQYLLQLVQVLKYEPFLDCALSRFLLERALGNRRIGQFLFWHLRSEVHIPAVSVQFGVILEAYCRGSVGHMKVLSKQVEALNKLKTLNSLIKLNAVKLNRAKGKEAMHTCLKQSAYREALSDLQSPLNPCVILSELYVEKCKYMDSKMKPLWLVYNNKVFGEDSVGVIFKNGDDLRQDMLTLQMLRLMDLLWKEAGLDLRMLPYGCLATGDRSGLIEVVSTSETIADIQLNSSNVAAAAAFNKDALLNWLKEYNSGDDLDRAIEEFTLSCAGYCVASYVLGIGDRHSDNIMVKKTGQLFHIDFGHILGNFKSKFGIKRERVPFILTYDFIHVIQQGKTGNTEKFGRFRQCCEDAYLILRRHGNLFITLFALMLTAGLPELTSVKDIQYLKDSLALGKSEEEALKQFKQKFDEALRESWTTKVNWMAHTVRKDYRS

IC50 (PI3K p110β): 21.7 µM
IC50 (PI3K p110α): 90.2 µM
SMILES: O[C@H]1[C@H](O)[C@@H](O)[C@H](O)[C@@H](O)[C@H]1O [MI, Myo-inositol]
